Data as given in patent US11649222B2, “Compounds” (UNIVERSITETET I OSLO, priority 2016, dated 2023).
Structures can show the parent of a compound that is named as a salt. Where two headings read alike, the source gives them in different places.

Assays:
VIM-2 = VIM-2 (Escherichia coli, UniProt Q5U7L7); format: biochemical; conditions: purified VIM-2, PD-10 column
Experimental: The eluent used was Chelex-treated HEPES 50 mM buffer, pH 7.5. […] In all experiments, 16 aliquots of 250 μL were taken from the PD-10 column runsout and enzyme activity was analysed. Enzyme activity was measured by adding Nitrocefin as a reporter substrate (final concentration of 50 μM).
To investigate if more extreme time-dependent and concentration-dependent conditions could restore enzyme activity, aliquots having final concentrations of 30 nM column-treated enzyme and 1000 μM Zn^2+ on ice and at room temperature over prolonged time.

[1] = tested on: resistant gram-negative MBL-based bacteria; assay: MICx: adjuvant concentration giving carbapenem MIC ≤ 2 mg/L; format: cell-based; conditions: lowest concentration of compound X that results in a MIC value of ≤ 2 mg/L for carbapenem antibiotics
Experimental: (§1) • Plate bacterial strain(s) on appropriate media: • Gram-negative bacteria with ESBLs or carbapenemases: green agar plates with 100 mg/L ampicillin • Gram-negative bacteria without β-lactamases: green agar plates • Gram-positive bacteria (Staphylococci and Enterococci): blood agar plates • Incubate o.n. at 37° C. […] (Should be used within 15 min of preparation). • Dilute the 0.5 McFarland suspension 1:100 into MH broth. […] Plate 10 μl of the dilution on MH agar plates (×2). Incubate o.n. at 37° C., count the colonies and calculate the final CFU/ml inoculum in the plate by multiplying the average number of colonies with 10000 and divide by 2. The final inoculum should be between 3-7×10^5 CFU/ml. • Add 50 μl of the prepared bacterial suspension to each well in the microtiter plate except negative growth control. Preparation of Compounds/Antibiotics • Calculate the desired concentration-range and volume of the compounds/antibiotics in the assay. […] Dilute the stock solution in MH broth. Make subsequent 2-fold dilutions in MH broth of the desired concentrations if a concentration range is to be tested (remember the extra dilution factor in the assay plate). Always include extra volume for pipetting. Take into consideration stock solutions that are made in buffers that have an effect on bacterial growth (e.g. DMSO).

human hepG2 cells = assay: In vitro toxicity in human hepG2 cells (AlamarBlue viability); format: cell-based
Experimental: For viability assays, cells were seeded in white 96-well Nunclon plates at a density of 20,000 cells/well and left overnight to adhere before experiments were conducted. Zn chelators dissolved in DMSO were added to white 96-well plates containing 20000 HepG2 cells/well at concentrations ranging from 1 to 1×10^−6 mM (max DMSO concentration never exceeded 1%) and incubated for 24 hours at 37° C. After 24 hours, AlamarBlue® cell viability reagent (Thermo Fisher, Carlsbad, USA) was added (10% final concentration) and incubated for 4 hours at 37° C.

[2] = tested on: K. pneumoniae K66-45 (NDM-1); assay: Microbroth dilution MIC of carbapenem with/without inhibitor; format: cell-based
Experimental: as §1

K. pneumoniae K66-45 = format: cell-based; conditions: inhibitor 25 mg/L; MEM 1 mg/L
Experimental: After plating and grown overnight at 37° C., only single colonies, ignoring any touching the edges of the plate, were counted.
10^9 CFU K66-45 (Mueller-Hinton broth, no selection) was plated and grown overnight, 37° C. Only single colonies, ignoring any touching the edges of the plate, were counted.

[3] = Solution stability on storage, measured indirectly by MIC; format: physicochemical; conditions: solution stored at 2-8° C.; MIC at 25 mg/L inhibitor
Source text: P. aeruginosa harboring VIM-2 and K. pneumonia bearing NDM-1 was used as two indicator strains.

[4] = In vivo toxicity in healthy mice; parameters: species or system Balb/c mice; conditions: ± SEM
Experimental: Female Balb/c mice (4 weeks old, approximately 20 g, Charles River, L'Arbresle, France) acclimatized 4 days in the animal facility before initiation of experiments. […] Individual weights were followed four days a week. Relative weight was calculated as the ratio between the weight of the day and the weight of the first day. The protocol for experiments in mice was approved by the University of Lyon Animal Ethics Committee. Toxicity experiments were performed by Antineo (www.antineo.fr).

P. stuartii (NDM-1) = assay: Microbroth dilution MIC of meropenem ± 25 mg/L inhibitor; format: cell-based
Experimental: (§2) • Plate bacterial strain(s) on appropriate media: • Gram-negative bacteria with ESBLs or carbapenemases: green agar plates with 100 mg/L ampicillin • Gram-negative bacteria without β-lactamases: green agar plates • Gram-positive bacteria (Staphylococci and Enterococci): blood agar plates • Incubate o.n. at 37° C. Day 2: Prepare the Bacterial Inoculum: • Prepare a 0.5 McFarland suspension of bacteria in 0.85% NaCl. (Should be used within 15 min of preparation). • Dilute the 0.5 McFarland suspension 1:100 into MH broth. Check the inoculum by diluting the prepared bacterial suspension 1:100 (10 μl bacterial suspension+990 μl 0.85% NaCl). Plate 10 μl of the dilution on MH agar plates (×2). Incubate o.n. at 37° C., count the colonies and calculate the final CFU/ml inoculum in the plate by multiplying the average number of colonies with 10000 and divide by 2. The final inoculum should be between 3-7×10^5 CFU/ml. • Add 50 μl of the prepared bacterial suspension to each well in the microtiter plate except negative growth control. Preparation of Compounds/Antibiotics • Calculate the desired concentration-range and volume of the compounds/antibiotics in the assay. […] Dilute the stock solution in MH broth. Make subsequent 2-fold dilutions in MH broth of the desired concentrations if a concentration range is to be tested (remember the extra dilution factor in the assay plate). Always include extra volume for pipetting. Take into consideration stock solutions that are made in buffers that have an effect on bacterial growth (e.g. DMSO).

P. stuartii (NDM) = assay: as above; format: cell-based
Experimental: as §2

E. cloacae (VIM) = assay: as above; format: cell-based
Experimental: as §2

P. mirabilis (NDM-1) = assay: as above; format: cell-based
Experimental: as §2

C. freundii (NDM) = assay: as above; format: cell-based
Experimental: as §2

E. coli (VIM-1) = assay: as above; format: cell-based
Experimental: as §2

K. pneumoniae (NDM-7) = assay: as above; format: cell-based
Experimental: as §2

C. freundii (NDM-1) = assay: as above; format: cell-based
Experimental: as §2

[5] = tested on: M. morganii (OXA48+ NDM-1); assay: as above; format: cell-based
Experimental: as §2

K. pneumoniae (NDM) = assay: as above; format: cell-based; conditions: K. pneumoniae NDM (several strains)
Experimental: as §2

K. pneumoniae (VIM) = assay: as above; format: cell-based
Experimental: as §2

[6] = tested on: P. aeruginosa K34-7 (VIM-2); assay: Microbroth dilution MIC of carbapenem with/without inhibitor; format: cell-based; conditions: inhibitor 63 mg/L
Experimental: as §1

neurons = conditions: Canzoniero et al.; cited from earlier work
[7] = tested on: P. aeruginosa 50808021 (No MBL); assay: Microbroth dilution MIC of meropenem with/without inhibitor; format: cell-based; conditions: inhibitor 63 mg/L
Experimental: as §1

[8] = tested on: P. aeruginosa 50692172 (NDM-1); assay: as above; format: cell-based; conditions: inhibitor 63 mg/L
Experimental: as §1

[9] = tested on: K. pneumoniae 50732159 (No MBL); assay: as above; format: cell-based; conditions: inhibitor 63 mg/L
Experimental: as §1

SMILES: O=C(O)CN(CCN(CC(=O)O)CC(=O)O)CC(=O)O [EDTA, ethylenediaminetetra-acetic acid, reference compound]
- irreversibility of VIM-2 inhibition (VIM-2): did not inhibit VIM-2 irreversibly
- MICx [1]: 15 µM
- IC50 (human hepG2 cells; Homo sapiens, HepG2, estimated values (footnote c), read-out: IC50h): 30 µM

SMILES: C[C@@H](N)C(=O)N[C@H](C)C(=O)NCCc1ccc(NC(=O)c2ccc(CN(Cc3ccccn3)Cc3ccccn3)nc2)cc1 [Example 195, N-(4-(2-((R)-2-((R)-2-aminopropanamido)propanamido)ethyl)phenyl)-6-((bis(pyridin-2-ylmethyl)amino)methyl)nicotinamide hydrochloride]
- MIC ([2]; Klebsiella pneumoniae, read-out: MIC of MEM in the presence of inhibitor): 0.125 µg/mL
- RF - no of colonies (K. pneumoniae K66-45): 163 colonies
- storage time after which the activity was absent [3]: 8 months
- storage time at which a loss of activity was observed [3]: 5 months
- Relative weight of mice ([4]; Day 1, treatment 4 mg/kg intraperitoneally): 100 ± 0%
- Relative weight of mice ([4]; Day 8, treatment 8 mg/kg): 98 ± 5%
- Relative weight of mice ([4]; Day 16, treatment 16 mg/kg): 103 ± 3%
- Relative weight of mice ([4]; Day 22, treatment 32 mg/kg): 103 ± 3%
- Relative weight of mice ([4]; Day 29, treatment 64 mg/kg): 106 ± 6%
- Relative weight of mice ([4]; Day 36, treatment 120 mg/kg): 110 ± 8%
- Relative weight of mice ([4]; Day 43, no injection, reporting): 110 ± 8%
- MIC meropenem + 25 mg/L Example 195 (P. stuartii (NDM-1)): 0.125 µg/mL
- MIC meropenem + 25 mg/L Example 195 (P. stuartii (NDM)): 0.25 µg/mL
- MIC meropenem + 25 mg/L Example 195 (E. cloacae (VIM)): <0.03 µg/mL
- MIC meropenem + 25 mg/L Example 195 (P. mirabilis (NDM-1)): 0.125 µg/mL
- MIC meropenem + 25 mg/L Example 195 (C. freundii (NDM)): 0.06 µg/mL
- MIC meropenem + 25 mg/L Example 195 (E. coli (VIM-1)): <0.03 µg/mL
- MIC meropenem + 25 mg/L Example 195 (K. pneumoniae (NDM-7)): <0.03 µg/mL
- MIC meropenem + 25 mg/L Example 195 (C. freundii (NDM-1)): 0.125 µg/mL
- MIC meropenem + 25 mg/L Example 195 [5]: 1 µg/mL
- MIC meropenem + 25 mg/L Example 195 (K. pneumoniae (NDM)): 0.06 µg/mL
- MIC meropenem + 25 mg/L Example 195 (K. pneumoniae (VIM)): 0.125 µg/mL
- IC50 (human hepG2 cells; Homo sapiens, HepG2, 24 h): > 1000 µM

SMILES: c1ccc(CN(CCN(Cc2ccccn2)Cc2ccccn2)Cc2ccccn2)nc1 [TPEN, N,N,N′,N′-tetrakis(2-pyridylmethyl) ethylenediamine, reference compound]
- Meropenem activity in presence of inhibitor ([2]; inhibitor 63 mg/L, K. pneumoniae K66-45 NDM-1): ≤0.5 mg/L
- Meropenem activity in presence of inhibitor [6]: 1 mg/L
- irreversibility of VIM-2 inhibition (VIM-2): irreversibly inhibited
- EC50 (neurons): ~5 µM
- MICx [1]: 15 µM
- IC50 (human hepG2 cells; human hepG2 cells, 24 hours, AlamarBlue, 8 replicates, read-out: IC50): 7.1 µM
- IC50 (human hepG2 cells; human hepG2 cells, read-out: IC50h): 7 µM
- Meropenem activity in presence of inhibitor [7]: 64 mg/L
- Meropenem activity in presence of inhibitor [8]: ≤0.5 mg/L
- Meropenem activity in presence of inhibitor [9]: ≤0.064 mg/L
